{"source": "patent US11352350B2", "about": "“IRAK degraders and uses thereof” (Kymera Therapeutics, Inc., priority 2018, dated 2022)", "key": {"[1]": {"test_system": "OCI-LY10", "experiment": "CTG Cell Viability Assay - OCI-LY10", "format": "cell-based, human", "conditions": "OCI-LY10, 4 days, read-out: CTG Cell Viability Assay - OCI-LY10: Average external-IC50", "outline": "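Viability read by CellTiter-Glo luminescence after 4 days at 37° C under 5% CO2 with compound (top 10 μM final, 1:3 steps, 9 doses, DMSO 0.2%). Three-parameter logistic fit gave IC50.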"}, "[2]": {"target": "IRAK4 (Homo sapiens (Human), UniProt Q9NWZ3)", "sequence (Q9NWZ3 whole entry)": "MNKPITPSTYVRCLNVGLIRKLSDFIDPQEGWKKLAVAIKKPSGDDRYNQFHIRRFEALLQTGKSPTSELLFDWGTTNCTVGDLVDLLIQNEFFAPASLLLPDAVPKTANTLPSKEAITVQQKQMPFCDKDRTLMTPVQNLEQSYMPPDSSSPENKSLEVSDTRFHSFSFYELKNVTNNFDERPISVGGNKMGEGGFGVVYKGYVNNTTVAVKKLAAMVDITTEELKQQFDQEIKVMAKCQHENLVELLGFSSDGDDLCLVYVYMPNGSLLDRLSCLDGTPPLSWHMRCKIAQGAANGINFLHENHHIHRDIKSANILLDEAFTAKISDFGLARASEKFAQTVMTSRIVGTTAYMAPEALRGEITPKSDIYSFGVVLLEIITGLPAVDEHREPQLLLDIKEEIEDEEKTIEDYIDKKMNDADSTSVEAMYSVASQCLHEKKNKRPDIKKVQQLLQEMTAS", "experiment": "IRAK4 MSD degradation in OCI-LY10", "format": "cell-based", "conditions": "MSD", "outline": "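Remaining IRAK4 quantified by electrochemiluminescent MSD sandwich assay with two anti-IRAK4 antibodies. Compounds were dosed as 8 concentrations in 1:3 steps from a 1 to 10 μM final top on OCI-LY10 cells, incubated 4 to 24 h at 37° C. under 5% CO2. DC50 fitted with a three-parameter logistic curve.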"}, "[3]": {"conditions": "OCI-LY10, 4 hrs, read-out: IRAK4 MSD degradation in OCI-LY10 at 4 hrs: Average external-Abs DC50"}, "[4]": {"conditions": "OCI-LY10, 24 hrs, read-out: IRAK4 MSD degradation in OCI-LY10 at 24 hrs: Average external-Abs DC50"}}, "note": "Like-named read-outs stand apart in the source and are kept apart here."}
{"molecule": "CC[C@@H]1[C@H](F)C(=O)N[C@@H]1COc1ncc(C#C[C@H]2CC[C@H](CN)CC2)c2cc(C(N)=O)c(OC)cc12", "note": "[I-314, 4-[2-[4-(Aminomethyl)cyclohexyl]ethynyl]-1-[[(2S,3S,4S)-3-ethyl-4-fluoro-5-oxo-pyrrolidin-2-yl]methoxy]-7-methoxy-isoquinoline-6-carboxamide]", "values": [{"measurement": "IC50", "setting": "[1]; Homo sapiens, OCI-Ly10, 96 h", "value": "> 1000", "unit": "nM"}, {"measurement": "DC50", "setting": "[2]; [3]", "value": "> 1000", "unit": "nM"}, {"measurement": "DC50", "setting": "[2]; [4]", "value": "> 1000", "unit": "nM"}]}
{"molecule": "CN(CCCOCCCN)C[C@H]1CC[C@H](n2cc(NC(=O)c3cnn4ccc(N5CCOCC5)nc34)c(C(F)F)n2)CC1", "note": "[I-315, N-[1-[4-[[3-(3-aminopropoxy)propyl-methyl-amino]methyl]cyclohexyl]-3-(difluoromethyl)pyrazol-4-yl]-5-morpholino-pyrazolo[1,5-a] pyrimidine-3-carboxamide]", "values": [{"measurement": "IC50", "setting": "[1]; Homo sapiens, OCI-Ly10, 96 h", "value": "> 1000", "unit": "nM"}, {"measurement": "DC50", "setting": "[2]; [3]", "value": "> 1000", "unit": "nM"}, {"measurement": "DC50", "setting": "[2]; [4]", "value": "> 1000", "unit": "nM"}]}
{"molecule": "CC[C@@H]1[C@H](F)C(=O)N[C@@H]1COc1ncc(C#C[C@H]2CC[C@H](CN(C)CCCOCCCN)CC2)c2cc(C(N)=O)c(OC)cc12", "note": "[I-316, 4-[2-[4-[[3-(3-Aminopropoxy)propyl-methyl-amino]methyl]cyclohexyl]ethynyl]-1-[[(2S, 3S, 4S)-3-ethyl-4-fluoro-5-oxo-pyrrolidin-2-yl]methoxy]-7-methoxy-isoquinoline-6-carboxamide]", "values": [{"measurement": "IC50", "setting": "[1]; Homo sapiens, 96 h", "value": "> 1000", "unit": "nM"}, {"measurement": "DC50", "setting": "[2]; [3]", "value": "> 1000", "unit": "nM"}, {"measurement": "DC50", "setting": "[2]; [4]", "value": "> 1000", "unit": "nM"}]}
{"molecule": "O=C1CCC(N2C(=O)c3cccc(NCCCOCCCOCCCN4CCC(n5cc(NC(=O)c6cnn7ccc(N8C[C@H]9C[C@@H]8CO9)nc67)c(C(F)F)n5)CC4)c3C2=O)C(=O)N1", "note": "(stereo partly shown) [I-321]", "values": [{"measurement": "IC50", "setting": "[1]", "value": "> 1000", "unit": "nM"}, {"measurement": "DC50", "setting": "[2]; [3]", "value": "100 to 1000", "unit": "nM"}]}
{"molecule": "CN1C(=O)CCC(N2Cc3c(OCc4ccc(CN5CCN(C[C@H]6CC[C@H](n7cc(NC(=O)c8cnn9ccc(N%10CCOCC%10)nc89)c(C(F)F)n7)CC6)CC5)cc4)cccc3C2=O)C1=O", "note": "(stereo partly shown) [I-322]", "values": [{"measurement": "IC50", "setting": "[1]; Homo sapiens, OCI-Ly10, 96 h", "value": "> 1000", "unit": "nM"}, {"measurement": "DC50", "setting": "[2]; [3]", "value": "100 to 1000", "unit": "nM"}, {"measurement": "DC50", "setting": "[2]; [4]", "value": "> 1000", "unit": "nM"}]}
{"molecule": "CN1C(=O)CCC(N2C(=O)c3cccc(NCC4CC5(CCN(C[C@H]6CC[C@H](n7cc(NC(=O)c8cnn9ccc(N%10C[C@H]%11C[C@@H]%10CO%11)nc89)c(C(F)F)n7)CC6)CC5)C4)c3C2=O)C1=O", "note": "(stereo partly shown) [I-323]", "values": [{"measurement": "IC50", "setting": "[1]; Homo sapiens, OCI-Ly10, 96 h", "value": "> 1000", "unit": "nM"}, {"measurement": "DC50", "setting": "[2]; [3]", "value": "100 to 1000", "unit": "nM"}, {"measurement": "DC50", "setting": "[2]; [4]", "value": "> 1000", "unit": "nM"}]}
{"molecule": "CN(C[C@H]1CC[C@H](n2cc(NC(=O)c3cnn4ccc(N5C[C@H]6C[C@@H]5CO6)nc34)c(C(F)F)n2)CC1)C1CCC(CNc2cccc3c2C(=O)N(C2CCC(=O)NC2=O)C3=O)CC1", "note": "(stereo partly shown) [I-324]", "values": [{"measurement": "IC50", "setting": "[1]; Homo sapiens, OCI-Ly10, 96 h", "value": "< 50", "unit": "nM"}, {"measurement": "DC50", "setting": "[2]; [3]", "value": "100 to 1000", "unit": "nM"}]}
{"molecule": "CN(Cc1ccc(CCNc2cccc3c2C(=O)N(C2CCC(=O)NC2=O)C3=O)cc1)C[C@H]1CC[C@H](n2cc(NC(=O)c3cnn4ccc(N5CCOCC5)nc34)c(C(F)F)n2)CC1", "note": "(stereo partly shown) [I-325]", "values": [{"measurement": "IC50", "setting": "[1]; Homo sapiens, OCI-Ly10, 96 h", "value": "> 1000", "unit": "nM"}, {"measurement": "DC50", "setting": "[2]; [3]", "value": "100 to 1000", "unit": "nM"}, {"measurement": "DC50", "setting": "[2]; [4]", "value": "10 to 100", "unit": "nM"}]}
{"molecule": "O=C1CCC(N2Cc3c(OC4CC5(CCN(C[C@H]6CC[C@H](n7cc(NC(=O)c8cnn9ccc(N%10C[C@H]%11C[C@@H]%10CO%11)nc89)c(C(F)F)n7)CC6)CC5)C4)cccc3C2=O)C(=O)N1", "note": "(stereo partly shown) [I-328]", "values": [{"measurement": "IC50", "setting": "[1]; Homo sapiens, OCI-Ly10, 96 h", "value": "< 50", "unit": "nM"}, {"measurement": "DC50", "setting": "[2]; [3]", "value": "10 to 100", "unit": "nM"}, {"measurement": "DC50", "setting": "[2]; [4]", "value": "< 10", "unit": "nM"}]}
{"molecule": "CC[C@H]1C(COc2ncc(C#C[C@H]3CC[C@H](CN(C)Cc4ccc(CCNc5cccc6c5C(=O)N(C5CCC(=O)NC5=O)C6=O)cc4)CC3)c3cc(C(N)=O)c(OC)cc23)NC(=O)[C@H]1F", "note": "(stereo partly shown) [I-329]", "values": [{"measurement": "IC50", "setting": "[1]; Homo sapiens, OCI-Ly10, 96 h", "value": "> 1000", "unit": "nM"}, {"measurement": "DC50", "setting": "[2]; [3]", "value": "100 to 1000", "unit": "nM"}]}
{"molecule": "O=C1CCC(N2Cc3c(NCCCOC4CCN(C[C@H]5CC[C@H](n6cc(NC(=O)c7cnn8ccc(N9CCOCC9)nc78)c(C(F)F)n6)CC5)CC4)cccc3C2=O)C(=O)N1", "note": "(stereo partly shown) [I-330]", "values": [{"measurement": "IC50", "setting": "[1]; Homo sapiens, OCI-Ly10, 96 h", "value": "> 1000", "unit": "nM"}, {"measurement": "DC50", "setting": "[2]; [4]", "value": "< 10", "unit": "nM"}]}
{"molecule": "O=C1CCC(N2C(=O)c3cccc(NCCCOC[C@H]4CN(C[C@H]5CC[C@H](n6cc(NC(=O)c7cnn8ccc(N9CCOCC9)nc78)c(C(F)F)n6)CC5)CCO4)c3C2=O)C(=O)N1", "note": "(stereo partly shown) [I-332]", "values": [{"measurement": "IC50", "setting": "[1]; Homo sapiens, OCI-Ly10, 96 h", "value": "100 to 500", "unit": "nM"}, {"measurement": "DC50", "setting": "[2]; [3]", "value": "100 to 1000", "unit": "nM"}, {"measurement": "DC50", "setting": "[2]; [4]", "value": "10 to 100", "unit": "nM"}]}
{"molecule": "CC[C@H]1C(COc2ncc(C#C[C@H]3CC[C@H](CN(C)CCN4CCO[C@H](CCNc5cccc6c5C(=O)N(C5CCC(=O)NC5=O)C6=O)C4)CC3)c3cc(C(N)=O)c(OC)cc23)NC(=O)[C@H]1F", "note": "(stereo partly shown) [I-334]", "values": [{"measurement": "IC50", "setting": "[1]; Homo sapiens, OCI-Ly10, 96 h", "value": "100 to 500", "unit": "nM"}, {"measurement": "DC50", "setting": "[2]; [3]", "value": "100 to 1000", "unit": "nM"}]}
